Results reported in patent US11202779B2, “Combinations for the treatment of neoplasms using quiescent cell targeting with EGFR inhibitors” (Felicitex Therapeutics, Inc., priority 2016, dated 2021).
Read-outs that look alike come from different tables or passages of the source. Each block holds one compound with its values, some of them ahead of it.

What was measured:
SW620 cells = test: FACS analysis of cell cycle distribution by DNA content (propidium iodide), SW620; assay type: cell-based; conditions: 24 hours in FBS− media, AZ191 2.5, 5, 10 μM, Compound I-7 1.25, 2.5, 5 μM
Experimental: (§1) The SW620 cells were cultured and treated as described in Example 1. For propidium iodide (PI) staining, manufacturer's protocol supplied with the Guava Cell Cycle Reagent for Flow Cytometry (EMD Millipore) was followed. The measurements were performed with Guava PCA-96 flow cytometer (EMD Millipore) using the green laser for excitation at 535 nm and monitoring emission at 617 nm.
as §1, with “cultured, treated,” for “cultured”, “analyzed” for “treated”, “Examples” for “Example”

DYRK1B [1] = conditions: literature value; read-out: inhibits DYRK1B at; cited from earlier work
quiescent cancer cells = conditions: in vitro, literature; cited from earlier work
PC9 cells = test: Cell viability assay in 2D cell culture (CellTiter-Glo), PC9; assay type: cell-based; conditions: Homo sapiens, PC-9, 96 h
Excerpt: (§2) The following cell lines were obtained from ATCC and cultured according to the ATCC recommendations: H1975—non-small cell lung cancer cell line harboring L858R and T790M mutations; HCC827—non-small cell lung cancer cell line with E746-A750 deletion in EGFR TK; PC9—non-small cell lung cancer cell line with E746-A750 deletion in EGFR TK; A549—non-small cell lung cancer cell line with wild type EGFR; PANC1—pancreatic cancer cell line; MiaPaCa-2—pancreatic cancer cell line, and SW620—colon cancer cell line. Cell cultures of these lines were seeded into 6-well plates at 3×10^5−6×10^5 cells/well; the plated number of cells depended on cell size and rate of proliferation, aiming for approximately 50% confluency. After seeding, the cells were allowed to attach for 24 hours while incubated at 37° C. in a humidified 5% CO2 atmosphere, and then treated with compounds for desired amount of time (usually 24 hours) incubating under same conditions. Then the cells were harvested by trypsinization, pooled with the floating cells, washed in PBS, and fixed in 70% ice-cold ethanol overnight. For Acridine Orange (AO) staining, fixed cells were washed once with ice-cold PBS, re-suspended in 100 μL PBS, followed by addition of 200 μL of permeabilizing solution and 600 μL AO staining solution.
(§3) For viability analysis, cells were seeded into 96-well plates at 2×10^3-6×10^3 cells/well; depending on cell size and rate of proliferation aiming for approximately 50% confluency. Cells were allowed to attach for 24 hours incubated at 37° C. in a humidified 5% CO2 atmosphere. The treatments were performed using at least 6 different concentrations of a compound in 1:3 serial dilutions. Before reading the results cells were incubated for 96 hours in 5% CO2 incubator at 37° C. Each treatment was performed in triplicate. Results were analyzed by CellTiter-Glo™ Luminescent Cell Viability Assay (Promega, cat. # G7571) according to the manufacturer's instructions using SpectraMAX Gemini Spectrophotometer (Molecular Devices).

A549 cells = test: Cell viability assay in 2D cell culture (CellTiter-Glo), A549; assay type: cell-based; conditions: Homo sapiens, A549, 96 h
Excerpt: as §2, §3

PANC1 cells = test: Cell viability assay in 2D cell culture (CellTiter-Glo), PANC1; assay type: cell-based; conditions: Homo sapiens, PANC-1, 96 h
H1975 cells [2] = test: Cell viability assay in 2D cell culture (CellTiter-Glo), H1975; assay type: cell-based; conditions: Homo sapiens, NCI-H1975, 96 h
[3] = system: phosphorylated Y1068-EGFR; test: Western blot, EGFR phosphorylation in H1975 cells; assay type: cell-based; conditions: 24 hours treatment
Experimental: (§4) For Western Blot analysis cells were seeded into 6-well plates at 5×10^5-9×10^5 cells/well (depending on the cell size and rate of proliferation), allowed to attach for 24 hours, then treated with compounds for 24 hours, and harvested. Immunoblotting was performed using conventional techniques, as described in Cell Signaling Technologies Western Blotting protocol (www.cellsignal.com).

DYRK1B [4] = test: Western blot, DYRK1B expression in H1975 cells; assay type: cell-based; conditions: 24 hours treatment, compared to untreated cells in FBS+ or FBS− medium
Experimental: as §4

MiaPaCa-2 cells = test: Cell viability assay in 2D cell culture (CellTiter-Glo), MiaPaCa-2; assay type: cell-based; conditions: Homo sapiens, MIA PaCa-2, 96 h
Excerpt: as §2, §3

[5] = system: PC9 human non-small cell lung cancer cells; conditions: exposure of PC9 cells, literature; cited from earlier work
H1975 spheroids = test: Cell viability assay in 3D cell culture (spheroids), H1975; assay type: cell-based; conditions: Homo sapiens, NCI-H1975, 168 h, seven days
Experimental: Each treatment was performed in triplicate.
Cells were incubated for 2-3 days (depending on the cell line) at 37° C. in a humidified 5% CO2 atmosphere allowing for tight spheroid formation. For the treatment, 50 μL of media was removed from each well and replaced with fresh media with compounds. […] Before reading the results, cells were incubated for the period of 4-10 days in 5% CO2 incubator at 37° C. If the treatment time exceeded 4 days, […] in each well was replaced with fresh media containing the test compound every fourth day. Each treatment was performed in duplicate. […] Prior to analysis, the spheroids were photographed at 50× magnification.

H1975 cells [6] = test: FACS analysis of cell cycle distribution (Acridine Orange), H1975; assay type: cell-based; conditions: 24 hours
[7] = EGFR inhibitor alone (Compound I-5 / I-7 not present)
[8] = EGFR inhibitor alone (Compound I-7 not present)
[9] = Compound I-7 present at 2 μM, read-out: EC50
[10] = Compound I-7 present at 4 μM, read-out: EC50
[11] = EGFR inhibitor alone (Compound I-5 / I-7 not present), read-out: EC50
[12] = 18 nM osimertinib with 5 μM Compound I-7, FBS+ or pre-starved

SMILES: COc1cc(N2CCN(C)CC2)ccc1Nc1nccc(-c2cn(C)c3cnccc23)n1 [AZ191]
fraction of cells in quiescent state (G0), based on fraction of cells G0+G1 phase (SW620 cells): no decrease in fraction of cells in quiescent state (G0)
IC50 (DYRK1B [1]): 17 nM

SMILES: CCOC(=N)c1nc2ccc3ncnc(Nc4cc(F)c(F)cc4Cl)c3c2s1 [Compound I-7]
fraction of cells in quiescent state (G0), based on fraction of cells G0+G1 phase (SW620 cells): significant decrease in fraction of cells in quiescent state (G0)

SMILES: COc1ncc2cc(C(=O)Nc3cc(C(=O)NCc4cccc(Cl)c4)ccc3Cl)c(=O)[nH]c2n1 [TC-S 7004]
effectiveness against quiescent cancer cells (quiescent cancer cells): effective against quiescent cancer cells in vitro

EC50 (PC9 cells; Compound I-7 present at 3 μM): 1.3 nM
EC50 (PC9 cells; Compound I-7 present at 6 μM): 0.4 nM
EC50 (PC9 cells; [7]): 2.1 nM
EC50 (A549 cells; Compound I-7 present at 3 μM): 2.6 µM
EC50 (A549 cells; Compound I-7 present at 6 μM): 1 µM
EC50 (A549 cells; [8]): 4.7 µM
EC50 (PANC1 cells; Compound I-7 present at 2 μM): 1.8 µM
EC50 (PANC1 cells; Compound I-7 present at 4 μM): 1.5 µM
EC50 (PANC1 cells; [7]): 1.9 µM
EC50 (H1975 cells [2]; Compound I-7 present at 2 μM): 25.2 nM
EC50 (H1975 cells [2]; Compound I-7 present at 4 μM): 8.2 nM
EC50 (H1975 cells [2]; [8]): 89.4 nM
SMILES: CN(C)C/C=C/C(=O)Nc1cc2c(Nc3ccc(F)c(Cl)c3)ncnc2cc1O[C@H]1CCOC1 [afatinib]

EC50 (PANC1 cells; [9]): 9.9 µM
EC50 (PANC1 cells; [10]): 7.1 µM
EC50 (PANC1 cells; [11]): 11.4 µM
EC50 (H1975 cells [2]; Compound I-7 present at 2 μM): 88.6 nM
EC50 (H1975 cells [2]; Compound I-7 present at 4 μM): 34.8 nM
EC50 (H1975 cells [2]; [8]): 110 nM
SMILES: COc1cc2ncnc(Nc3ccc(F)c(Cl)c3)c2cc1NC(=O)/C=C/CN1CCCCC1 [dacomitinib]
EGFR phosphorylation (ph-Y1068 EGFR) [3]: suppressed the EGFR phosphorylation
expression of DYRK1B protein (DYRK1B [4]): induced expression of DYRK1B protein similar to or higher than that produced by serum starvation

SMILES: C#Cc1cccc(Nc2ncnc3cc(OCCOC)c(OCCOC)cc23)c1 [erlotinib]
EC50 (PC9 cells; Compound I-5 present at 2 μM): 9.3 nM
EC50 (PC9 cells; Compound I-5 present at 4 μM): 3.7 nM
EC50 (PC9 cells; [7]): 17.3 nM
EC50 (A549 cells; Compound I-7 present at 3 μM, read-out: EC50): 5.9 µM
EC50 (A549 cells; Compound I-7 present at 6 μM, read-out: EC50): 0.4 µM
EC50 (A549 cells; EGFR inhibitor alone (Compound I-7 not present), read-out: EC50): 10.4 µM
EC50 (PANC1 cells; Compound I-5 present at 2.5 μM, read-out: EC50): > 30 µM
EC50 (PANC1 cells; Compound I-5 present at 5 μM, read-out: EC50): 14 µM
EC50 (PANC1 cells; [11]): > 30 µM
EC50 (MiaPaCa-2 cells; Compound I-5 present at 2.5 μM): 6.4 µM
EC50 (MiaPaCa-2 cells; Compound I-5 present at 5 μM): 3.5 µM
EC50 (MiaPaCa-2 cells; erlotinib alone (Compound I-5 not present)): > 30 µM
fraction of cells in G0 (pharmacological quiescence) [5]: significant increase of fraction of cells in G0

SMILES: CS(=O)(=O)CCNCc1ccc(-c2ccc3ncnc(Nc4ccc(OCc5cccc(F)c5)c(Cl)c4)c3c2)o1 [lapatinib]
fraction of cells in G0 (pharmacological quiescence) [5]: significant increase of fraction of cells in G0

SMILES: C=CC(=O)Nc1cc(Nc2nccc(-c3cn(C)c4ccccc34)n2)c(OC)cc1N(C)CCN(C)C [osimertinib]
EC50 (PANC1 cells; [9]): 4.6 µM
EC50 (PANC1 cells; [10]): 4.5 µM
EC50 (PANC1 cells; [11]): 5.3 µM
EC50 (H1975 cells [2]; Compound I-7 present at 2 μM): 7.9 nM
EC50 (H1975 cells [2]; Compound I-7 present at 4 μM): 4.2 nM
EC50 (H1975 cells [2]; [8]): 8.7 nM
EC50 (H1975 spheroids; regular growth media (FBS+), Compound I-7 not present): 0.68 nM
EC50 (H1975 spheroids; regular growth media (FBS+), Compound I-7 present at 2.5 μM): 0.28 nM
EC50 (H1975 spheroids; serum starvation (FBS−), Compound I-7 not present): 3.3 nM
EC50 (H1975 spheroids; serum starvation (FBS−), Compound I-7 present at 2.5 μM): 1 nM
fraction of cells in quiescent (G0) state (H1975 cells [6]; 18 nM osimertinib alone, pre-incubated in FBS+ or pre-starved in FBS− medium): even more effective than serum starvation (FBS−) at inducing a large fraction of the cells into the quiescent (G0) state
apoptotic cells (sub-G0 population) (H1975 cells [6]; [12]): significant increases in apoptotic cells
fraction of cells in G0 (H1975 cells [6]; [12]): reduced the fraction of cells in G0
EGFR phosphorylation (ph-Y1068 EGFR) [3]: suppressed the EGFR phosphorylation
expression of DYRK1B protein (DYRK1B [4]): induced expression of DYRK1B protein similar to or higher than that produced by serum starvation

EC50 (PANC1 cells; [9]): 9.9 µM
EC50 (PANC1 cells; [10]): 7.1 µM
EC50 (PANC1 cells; [11]): 11.4 µM
EC50 (H1975 cells [2]; Compound I-7 present at 2 μM): 22.5 nM
EC50 (H1975 cells [2]; Compound I-7 present at 4 μM): 14.9 nM
EC50 (H1975 cells [2]; [8]): 351 nM
SMILES: C=CC(=O)Nc1cccc(Nc2nc(Nc3ccc(N4CCN(C(C)=O)CC4)cc3OC)ncc2C(F)(F)F)c1 [rociletinib]
